# Active and inactive are the calls of the source. The rule behind the calls is not given here.
# Experiments:
# QG-56 = assay: Cytotoxicity against human QG56 cells after 48 hrs by MTT assay; format: functional, cell-based
# [1] = system: Burkholderia pseudomallei; assay: Antibacterial activity against Burkholderia pseudomallei NTCC 10274 at 40 uM/ml after 24 hrs by kirby-bauer method; format: functional; details: NTCC 10274, 24 h, read-out: IZ
# Escherichia coli [2] = assay: Antibacterial activity against Escherichia coli ATCC 35218 at 20 uM/ml after 24 hrs by kirby-bauer method; format: functional; details: ATCC 35218, 24 h, read-out: IZ
# Staphylococcus aureus = assay: Antibacterial activity against Staphylococcus aureus ATCC 11632 at 160 uM/ml after 24 hrs by kirby-bauer method; format: functional
# Aspergillus flavus [3] = assay: Antifungal activity against Aspergillus flavus MTCC 1021 at 160 uM/ml after 48 hrs by paper disc diffusion method; format: functional
# Escherichia coli [4] = assay: Antibacterial activity against Escherichia coli ATCC 35218 at 160 uM/ml after 24 hrs by kirby-bauer method; format: functional; details: ATCC 35218, 24 h, read-out: IZ
# Curvularia lunata [5] = assay: Antifungal activity against Curvularia lunata MTCC 581 at 20 uM/ml after 48 hrs by paper disc diffusion method; format: functional; details: MTCC 581, 48 h, read-out: IZ
# Aspergillus niger [6] = assay: Antifungal activity against Aspergillus niger MTCC 1108 at 160 uM/ml after 48 hrs by paper disc diffusion method; format: functional
# [7] = system: Burkholderia pseudomallei; assay: Antibacterial activity against Burkholderia pseudomallei NTCC 10274 at 20 uM/ml after 24 hrs by kirby-bauer method; format: functional; details: NTCC 10274, 24 h, read-out: IZ
# Curvularia lunata [8] = assay: Antifungal activity against Curvularia lunata MTCC 581 at 40 uM/ml after 48 hrs by paper disc diffusion method; format: functional; details: MTCC 581, 48 h, read-out: IZ
# Trichoderma viride [9] = assay: Antifungal activity against Trichoderma viride MTCC 1107 at 20 uM/ml after 48 hrs by paper disc diffusion method; format: functional; details: MTCC 1107, 48 h, read-out: IZ
# Salmonella typhimurium [10] = assay: Antibacterial activity against Salmonella typhimurium ATCC 23564 at 80 uM/ml after 24 hrs by kirby-bauer method; format: functional, Salmonella enterica subsp. enterica serovar Typhimurium; details: Salmonella enterica, ATCC 23564, 24 h; read-out: IZ
# Trichoderma viride [11] = assay: Antifungal activity against Trichoderma viride MTCC 1107 at 160 uM/ml after 48 hrs by paper disc diffusion method; format: functional; details: MTCC 1107, 48 h, read-out: IZ
# Curvularia lunata [12] = assay: Antifungal activity against Curvularia lunata MTCC 581 at 160 uM/ml after 48 hrs by paper disc diffusion method; format: functional; details: MTCC 581, 48 h, read-out: IZ
# [13] = system: Burkholderia pseudomallei; assay: Antibacterial activity against Burkholderia pseudomallei NTCC 10274 at 80 uM/ml after 24 hrs by kirby-bauer method; format: functional; details: NTCC 10274, 24 h, read-out: IZ
# Escherichia coli [14] = assay: Antibacterial activity against Escherichia coli ATCC 35218 at 80 uM/ml after 24 hrs by kirby-bauer method; format: functional; details: ATCC 35218, 24 h, read-out: IZ
# Trichoderma viride [15] = assay: Antifungal activity against Trichoderma viride MTCC 1107 at 40 uM/ml after 48 hrs by paper disc diffusion method; format: functional; details: MTCC 1107, 48 h, read-out: IZ
# Salmonella typhimurium [16] = assay: Antibacterial activity against Salmonella typhimurium ATCC 23564 at 40 uM/ml after 24 hrs by kirby-bauer method; format: functional, Salmonella enterica subsp. enterica serovar Typhimurium; details: Salmonella enterica, ATCC 23564, 24 h; read-out: IZ
# Escherichia coli [17] = assay: Antibacterial activity against Escherichia coli ATCC 35218 at 40 uM/ml after 24 hrs by kirby-bauer method; format: functional; details: ATCC 35218, 24 h, read-out: IZ
# Curvularia lunata [18] = assay: Antifungal activity against Curvularia lunata MTCC 581 at 80 uM/ml after 48 hrs by paper disc diffusion method; format: functional; details: MTCC 581, 48 h, read-out: IZ
# Pseudomonas aeruginosa [19] = assay: Antibacterial activity against Pseudomonas aeruginosa ATCC 15499 at 160 uM/ml after 24 hrs by kirby-bauer method; format: functional
# Salmonella typhimurium [20] = assay: Antibacterial activity against Salmonella typhimurium ATCC 23564 at 160 uM/ml after 24 hrs by kirby-bauer method; format: functional, Salmonella enterica subsp. enterica serovar Typhimurium
# Trichoderma viride [21] = assay: Antifungal activity against Trichoderma viride MTCC 1107 at 80 uM/ml after 48 hrs by paper disc diffusion method; format: functional; details: MTCC 1107, 48 h, read-out: IZ
# Salmonella typhimurium [22] = assay: Antibacterial activity against Salmonella typhimurium ATCC 23564 at 20 uM/ml after 24 hrs by kirby-bauer method; format: functional, Salmonella enterica subsp. enterica serovar Typhimurium; details: Salmonella enterica, ATCC 23564, 24 h; read-out: IZ
# [23] = system: Burkholderia pseudomallei; assay: Antibacterial activity against Burkholderia pseudomallei NTCC 10274 at 160 uM/ml after 24 hrs by kirby-bauer method; format: functional; details: NTCC 10274, 24 h, read-out: IZ
# Pseudomonas aeruginosa [24] = assay: Antibacterial activity against Pseudomonas aeruginosa ATCC 15499 at 20 uM/ml after 24 hrs by kirby-bauer method; format: functional; details: ATCC 15499, 24 h, read-out: IZ
# Aspergillus niger [25] = assay: Antifungal activity against Aspergillus niger MTCC 1108 at 80 uM/ml after 48 hrs by paper disc diffusion method; format: functional; details: MTCC 1108, 48 h, read-out: IZ
# Aspergillus flavus [26] = assay: Antifungal activity against Aspergillus flavus MTCC 1021 at 20 uM/ml after 48 hrs by paper disc diffusion method; format: functional
# Aspergillus niger [27] = assay: Antifungal activity against Aspergillus niger MTCC 1108 at 20 uM/ml after 48 hrs by paper disc diffusion method; format: functional
# Pseudomonas aeruginosa [28] = assay: Antibacterial activity against Pseudomonas aeruginosa ATCC 15499 at 40 uM/ml after 24 hrs by kirby-bauer method; format: functional; details: ATCC 15499, 24 h, read-out: IZ
# Aspergillus flavus [29] = assay: Antifungal activity against Aspergillus flavus MTCC 1021 at 80 uM/ml after 48 hrs by paper disc diffusion method; format: functional
# Aspergillus niger [30] = assay: Antifungal activity against Aspergillus niger MTCC 1108 at 40 uM/ml after 48 hrs by paper disc diffusion method; format: functional
# Aspergillus flavus [31] = assay: Antifungal activity against Aspergillus flavus MTCC 1021 at 40 uM/ml after 48 hrs by paper disc diffusion method; format: functional
# Pseudomonas aeruginosa [32] = assay: Antibacterial activity against Pseudomonas aeruginosa ATCC 15499 at 80 uM/ml after 24 hrs by kirby-bauer method; format: functional; details: ATCC 15499, 24 h, read-out: IZ
Compound,IC50 (HCT-116) [uM/ml],IC50 (HepG2) [uM/ml],IC50 (QG-56) [uM/ml],zone of inhibition at 40 µM [1] [mm],zone of inhibition at 20 µM (Escherichia coli [2]) [mm],inhibition zone (IZ) (Staphylococcus aureus),zone of inhibition at 160 µM (Escherichia coli [4]) [mm],zone of inhibition at 20 µM (Curvularia lunata [5]) [mm],zone of inhibition at 20 µM [7] [mm],zone of inhibition at 40 µM (Curvularia lunata [8]) [mm],zone of inhibition at 20 µM (Trichoderma viride [9]) [mm],zone of inhibition at 160 µM (Trichoderma viride [11]) [mm],zone of inhibition at 160 µM (Curvularia lunata [12]) [mm],zone of inhibition at 80 µM [13] [mm],zone of inhibition at 80 µM (Escherichia coli [14]) [mm],zone of inhibition (Trichoderma viride [15]) [mm],zone of inhibition at 40 µM (Escherichia coli [17]) [mm],zone of inhibition at 80 µM (Curvularia lunata [18]) [mm],zone of inhibition at 80 µM (Trichoderma viride [21]) [mm],zone of inhibition at 160 µM [23] [mm],also measured
COc1cccc2c1C(=O)c1c(O)c3c(c(O)c1C2=O)C[C@@](O)(C(=O)CO)C[C@@H]3O[C@H]1C[C@H](N)[C@H](O)[C@H](C)O1 [DOXORUBICIN],5,2.5,2.5,,,,,,,,,,,,,,,,,,
COc1cc(/C=C/C(=O)C2=C(/C=C/c3ccc(O)c(OC)c3)NC(=O)NC2c2ccc(O)c(OC)c2)ccc1O (stereo not drawn),100,25,50,14,11,inactive,19,13,10,17,15,21,21,16,17,16,14,18,18,16,"inhibition zone (IZ) (Aspergillus flavus [3]): inactive; inhibition zone (IZ) (Aspergillus niger [6]): inactive; zone of inhibition at 80 µM (Salmonella typhimurium [10]): 19 mm; zone of inhibition at 40 µM (Salmonella typhimurium [16]): 16 mm; inhibition zone (IZ) (Pseudomonas aeruginosa [19]): inactive; zone of inhibition at 160 µM (Salmonella typhimurium [20]; Salmonella enterica, ATCC 23564, 24 h, read-out: IZ): 22 mm; zone of inhibition at 20 µM (Salmonella typhimurium [22]): 13 mm"
COc1cc(/C=C/C(=O)C2=C(/C=C/c3ccc(O)c(OC)c3)NC(=S)NC2c2ccccc2)ccc1O (stereo not drawn),100,50,50,13,12,inactive,21,18,11,21,18,24,26,16,18,21,14,23,21,18,"zone of inhibition at 20 µM (Pseudomonas aeruginosa [24]): 12 mm; zone of inhibition at 80 µM (Aspergillus niger [25]): 14 mm; zone of inhibition at 160 µM (Aspergillus flavus [3]; MTCC 1021, 48 h, read-out: IZ): 9 mm; inhibition zone (IZ) (Aspergillus flavus [26]): inactive; zone of inhibition at 160 µM (Aspergillus niger [6]; MTCC 1108, 48 h, read-out: IZ): 16 mm; inhibition zone (IZ) (Aspergillus niger [27]): inactive; zone of inhibition at 40 µM (Pseudomonas aeruginosa [28]): 14 mm; inhibition zone (IZ) (Aspergillus flavus [29]): inactive; inhibition zone (IZ) (Aspergillus niger [30]): inactive; inhibition zone (IZ) (Aspergillus flavus [31]): inactive; zone of inhibition at 80 µM (Pseudomonas aeruginosa [32]): 17 mm; zone of inhibition at 160 µM (Pseudomonas aeruginosa [19]; ATCC 15499, 24 h, read-out: IZ): 18 mm; inhibition zone (IZ) (Salmonella typhimurium [20]; Salmonella enterica subsp. enterica serovar Typhimurium): inactive"
